Data reported in BindingDB's records for doi:10.1021/jm9012642 (Wyeth Research, 2009).

Molecular target: Serine/threonine-protein kinase mTOR (Homo sapiens, UniProt P42345)
Experiment: mTOR Kinase Assay
Conditions: 25 °C

- IC50: 47 nM
SMILES: Oc1cccc(-c2nc(N3CCOCC3)c3cnn(C4CCN(Cc5cccnc5)CC4)c3n2)c1 [JMC527081 Compound 5f]
